Data set [1] concerns food intake. Kind of data set: Assay (I) efficacy testing on appetite (food intake), ad libitum fed rat model. Format: in vivo, Sprague Dawley (SD) rats. The text has this: In the following examples reference is made to the following Assays: • Assay (I)— Experimental protocol for efficacy testing on appetite using an ad libitum fed rat model • ASSAY (II)a—Functional assay—Human calcitonin and amylin receptor assay • ASSAY (II)b—Functional assay—Rat calcitonin and rat amylin receptor assays • ASSAY (III)—ThT fibrillation assays for the assessment of physical stability of protein formulations • ASSAY (IV)—Determination of solubility • ASSAY (V)—Determination of binding to the human amylin receptor • ASSAY (VI)—Determination of the binding to the rat amylin receptor • ASSAY (VII)—Determination of binding to the human calcitonin receptor • ASSAY (VIII)—Determination of binding to the rat calcitonin receptor • ASSAY (IX)—pK—Determination of T % in mini-pig • ASSAY (X)—pK—Determination of T % in rat ASSAY (I)—Experimental Protocol for Efficacy Testing on Appetite Using an Ad Libitum Fed Rat Model
Sprague Dawley (SD) rats from Taconic Europe, Denmark are used for the experiments. The rats have a body weight 200-250 g at the start of experiment. The rats arrive at least 10-14 days before start of experiment to allow acclimatization to experimental settings. During this period the animals are handled at least 2 times. After arrival rats are housed individually for one week in a reversed light/dark phase (meaning that lights are off during daytime and on during nighttime) […]. Since rats are normally active and eat their major part of their daily food intake during the dark period, rats are dosed in the morning right before lights are turned off. This set-up results in the lowest data variation and highest test sensitivity. The experiment is conducted in the rats' home cages and rats have free access to food and water throughout the acclimatization period and the experiment period. Each dose of derivative is tested in a group of 5-8 rats. A vehicle group of 6-8 rats is included in each set of testing. Rats are dosed once according to body weight with a 0.01-3 mg/kg solution administered intraperitoneally (ip), orally (po) or subcutaneously (sc). The time of dosing is recorded for each group. After dosing, the rats are returned to their home cages, where they then have access to food and water. The food consumption is recorded individually continuously by on-line registration or manually every hour for 7 hours, and then after 24 h and sometimes 48 h. At the end of the experimental session, the animals are euthanised.
The individual data are recorded in Microsoft excel sheets. Outliers are excluded after applying the Grubbs statistical evaluation test for outliers, and the result is presented graphically using the GraphPad Prism program.

The nature of data set [2]: Assay (III) ThT fibrillation assay for physical stability. Format: physicochemical. An outline of the steps:
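Freshly prepared formulations, pH-adjusted, with 1 μM ThT; four or eight replicates incubated at 37 °C under 960 rpm orbital shaking. Fluorescence (ex 444/em 485 nm) read every 20 min; […]. Peptide concentration measured by RP-HPLC before and after the run.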

Starred links: 1 amine or outer side, 2 acyl side, 3 side chain; linkers in the order of their positions; H or OH if unused. Positions of bridges follow the written chain, without caps; N, C: chain ends. Residues, ends and D or L forms follow the SMILES beside them. *: point of attachment. C20 diacid = O=C(O)CCCCCCCCCCCCCCCCCCC(=O)*; γGlu = O=C(O)[C@H](CCC(=O)[*:2])N[*:1] Where only a bound is given, the exact number is not on record here.

Regarding `CC[C@H](C)[C@H](NC(=O)[C@@H]1CCCN1C(=O)CNC(=O)[C@H](Cc1ccccc1)NC(=O)[C@H](CC(N)=O)NC(=O)[C@H](CC(N)=O)NC(=O)[C@H](CO)NC(=O)[C@H](CO)NC(=O)[C@H](Cc1c[nH]cn1)NC(=O)[C@H](CCCNC(=N)N)NC(=O)[C@H](CC(C)C)NC(=O)[C@H](Cc1ccccc1)NC(=O)[C@H](CCC(=O)O)NC(=O)[C@H](C)NC(=O)[C@H](CC(C)C)NC(=O)[C@H](CCCNC(=N)N)NC(=O)[C@H](CCC(N)=O)NC(=O)[C@@H](NC(=O)[C@H](C)NC(=O)[C@@H]1CSSC[C@H](NC(=O)[C@H](Cc2c[nH]cn2)NC(=O)[C@H](Cc2c[nH]cn2)NC(=O)[C@H](Cc2c[nH]cn2)NC(=O)CC[C@H](NC(=O)CCCCCCCCCCCCCCCCCCC(=O)O)C(=O)O)C(=O)N[C@@H](CC(N)=O)C(=O)N[C@@H]([C@@H](C)O)C(=O)N[C@@H](C)C(=O)N[C@@H]([C@@H](C)O)C(=O)N1)[C@@H](C)O)C(=O)N[C@@H](CC(C)C)C(=O)N1CCC[C@H]1C(=O)N1CCC[C@H]1C(=O)N[C@H](C(=O)N[C@@H](CC(N)=O)C(=O)N[C@H](C(=O)NCC(=O)N[C@@H](CO)C(=O)N[C@@H](CC(N)=O)C(=O)N[C@H](C(=O)N[C@@H](Cc1ccc(O)cc1)C(N)=O)[C@@H](C)O)C(C)C)[C@@H](C)O` [Example 12, N-alpha-[(S)-4-Carboxy-4-(19-carboxynonadecanoylamino)butyryl]-His-His-[His1,Glu14,Arg17]-pramlintide] ({C20 diacid-γGlu}-HHHCNTATCATQRLAEFLRHSSNNFGPILPPTNVGSNTY-NH2; disulfide 4-9 (inferred); C-terminus assumed), in data set [1], the “Food intake reduction 0-24 h 30 nmol/kg (%)” value was 70% and the “Food intake reduction 24-48 h 30 nmol/kg (%)” value came to 45%. Moreover, in data set [2] (ThT fibrillation assay), the “ThT pH 4.0 lag time” value was over 45 h and the “ThT pH 4.0 lag time (h)” value is recorded as over 45 h.
In the case of `CC[C@H](C)[C@H](NC(=O)[C@@H]1CCCN1C(=O)CNC(=O)[C@H](Cc1ccccc1)NC(=O)[C@H](CO)NC(=O)[C@H](CO)NC(=O)[C@H](CO)NC(=O)[C@H](CO)NC(=O)[C@H](CCCNC(=N)N)NC(=O)[C@H](Cc1c[nH]cn1)NC(=O)[C@H](CC(C)C)NC(=O)[C@H](Cc1ccccc1)NC(=O)[C@H](CCC(=O)O)NC(=O)[C@H](C)NC(=O)[C@H](CC(C)C)NC(=O)[C@H](CCCNC(=N)N)NC(=O)[C@H](CCC(N)=O)NC(=O)[C@@H](NC(=O)[C@H](C)NC(=O)[C@@H]1CSSC[C@H](NC(=O)[C@H](Cc2c[nH]cn2)NC(=O)CC[C@H](NC(=O)CCCCCCCCCCCCCCCCCCC(=O)O)C(=O)O)C(=O)N[C@@H](CC(N)=O)C(=O)N[C@@H]([C@@H](C)O)C(=O)N[C@@H](C)C(=O)N[C@@H]([C@@H](C)O)C(=O)N1)[C@@H](C)O)C(=O)N[C@@H](CC(C)C)C(=O)N1CCC[C@H]1C(=O)N1CCC[C@H]1C(=O)N[C@H](C(=O)N[C@@H](CC(=O)O)C(=O)N[C@H](C(=O)NCC(=O)N[C@@H](CO)C(=O)N[C@@H](CC(=O)O)C(=O)N[C@H](C(=O)N[C@@H](Cc1ccc(O)cc1)C(N)=O)[C@@H](C)O)C(C)C)[C@@H](C)O` [Example 9, N-alpha-[(S)-4-Carboxy-4-(19-carboxynonadecanoylamino)butyryl]-[His1,Glu14,His17,Arg18,Ser21,Ser22,Asp31,Asp35]-pramlintide] ({C20 diacid-γGlu}-HCNTATCATQRLAEFLHRSSSSFGPILPPTDVGSDTY-NH2; disulfide 2-7 (inferred); C-terminus assumed), in data set [1], the “Food intake reduction 0-24 h 3 nmol/kg (%)” value worked out at 39% and the “Food intake reduction 24-48 h 3 nmol/kg (%)” value amounted to 32%. Further, in data set [2] (Table 8), the “ThT pH 4.0 lag time” value was over 45 h. Further, the “ThT pH 4.0 lag time” value in data set [2] (Table 9) is over 45 h. In addition, in data set [2] (ThT fibrillation assay), the “ThT pH 4.0 lag time” value is listed as over 45 h and the “ThT pH 4.0 lag time (h)” value is reported as over 45 h.
Turning to `CC[C@H](C)[C@H](NC(=O)[C@@H]1CCCN1C(=O)CNC(=O)[C@H](Cc1ccccc1)NC(=O)[C@H](CC(N)=O)NC(=O)[C@H](CC(N)=O)NC(=O)[C@H](CO)NC(=O)[C@H](CO)NC(=O)[C@H](Cc1c[nH]cn1)NC(=O)[C@H](Cc1c[nH]cn1)NC(=O)[C@H](CC(C)C)NC(=O)[C@H](Cc1ccccc1)NC(=O)[C@H](CCC(=O)O)NC(=O)[C@H](C)NC(=O)[C@H](CC(C)C)NC(=O)[C@H](CCCNC(=N)N)NC(=O)[C@H](CCC(N)=O)NC(=O)[C@@H](NC(=O)[C@H](C)NC(=O)[C@@H]1CSSC[C@H](NC(=O)[C@H](CCCCN)NC(=O)CC[C@H](NC(=O)CCCCCCCCCCCCCCCCCCC(=O)O)C(=O)O)C(=O)N[C@@H](CC(N)=O)C(=O)N[C@@H]([C@@H](C)O)C(=O)N[C@@H](C)C(=O)N[C@@H]([C@@H](C)O)C(=O)N1)[C@@H](C)O)C(=O)N[C@@H](CC(C)C)C(=O)N1CCC[C@H]1C(=O)N1CCC[C@H]1C(=O)N[C@H](C(=O)N[C@@H](CC(N)=O)C(=O)N[C@H](C(=O)NCC(=O)N[C@@H](CO)C(=O)N[C@@H](Cc1c[nH]cn1)C(=O)N[C@H](C(=O)N[C@@H](Cc1ccc(O)cc1)C(N)=O)[C@@H](C)O)C(C)C)[C@@H](C)O` [Example 55, N-alpha-[(S)-4-Carboxy-4-(19-carboxynonadecanoylamino)butyryl]-[Glu14,His17,His35]-pramlintide] ({C20 diacid-γGlu}-KCNTATCATQRLAEFLHHSSNNFGPILPPTNVGSHTY-NH2; disulfide 2-7 (inferred)), in data set [1], the “Food intake reduction 0-24 h 3 nmol/kg (%)” value came to 58%, the “Food intake reduction 0-24 h 30 nmol/kg (%)” value worked out at 88%, the “Food intake reduction 24-48 h 3 nmol/kg (%)” value is reported as 40% and the “Food intake reduction 24-48 h 30 nmol/kg (%)” value came out at 90%. Besides, in data set [2] (ThT fibrillation assay), the “ThT pH 4.0 lag time” value amounted to 37 h and the “ThT pH 4.0 lag time (h)” value stood at 37 h.
Consider `CC[C@H](C)[C@H](NC(=O)[C@@H]1CCCN1C(=O)CNC(=O)[C@H](Cc1ccccc1)NC(=O)[C@H](CC(N)=O)NC(=O)[C@H](CC(N)=O)NC(=O)[C@H](CO)NC(=O)[C@H](CO)NC(=O)[C@H](Cc1c[nH]cn1)NC(=O)[C@H](Cc1c[nH]cn1)NC(=O)[C@H](CC(C)C)NC(=O)[C@H](Cc1ccccc1)NC(=O)[C@H](CCC(=O)O)NC(=O)[C@H](C)NC(=O)[C@H](CC(C)C)NC(=O)[C@H](CCCNC(=N)N)NC(=O)[C@H](CCC(N)=O)NC(=O)[C@@H](NC(=O)[C@H](C)NC(=O)[C@@H]1CSSC[C@H](NC(=O)[C@H](CCCCN)NC(=O)CC[C@H](NC(=O)CCCCCCCCCCCCCCCCCCC(=O)O)C(=O)O)C(=O)N[C@@H](CC(N)=O)C(=O)N[C@@H]([C@@H](C)O)C(=O)N[C@@H](C)C(=O)N[C@@H]([C@@H](C)O)C(=O)N1)[C@@H](C)O)C(=O)N[C@@H](CC(C)C)C(=O)N1CCC[C@H]1C(=O)N1CCC[C@H]1C(=O)N[C@H](C(=O)N[C@@H](CC(N)=O)C(=O)N[C@H](C(=O)NCC(=O)N[C@@H](CO)C(=O)N[C@@H](CC(N)=O)C(=O)N[C@H](C(=O)N1CCC[C@H]1C(N)=O)[C@@H](C)O)C(C)C)[C@@H](C)O` [Example 52, N-alpha-[(S)-4-Carboxy-4-(19-carboxynonadecanoylamino)butyryl]-[Glu14,His17,Pro37]-pramlintide] ({C20 diacid-γGlu}-KCNTATCATQRLAEFLHHSSNNFGPILPPTNVGSNTP-NH2; disulfide 2-7 (inferred); C-terminus assumed), for which, in data set [1], the “Food intake reduction 0-24 h 3 nmol/kg (%)” value is given as 62% and the “Food intake reduction 24-48 h 3 nmol/kg (%)” value came to 74%. Also, the “ThT pH 4.0 lag time” value in data set [2] (Table 8) is given as over 45 h. For the same compound, the “ThT pH 4.0 lag time” value in data set [2] (Table 9) is given as over 45 h. For the same compound, in data set [2] (ThT fibrillation assay), the “ThT pH 4.0 lag time” value is recorded as over 45 h and the “ThT pH 4.0 lag time (h)” value is over 45 h.

Values taken from patent US8722849B2, “Polypeptides” (Novo Nordisk A/S, priority 2011, dated 2014).
